Drawing on paper PMC7827628, “Effect of Sulfonamides and Their Structurally Related Derivatives on the Activity of ι-Carbonic Anhydrase from Burkholderia territorii” (International Journal of Molecular Sciences, 2021), this text covers Ki for 17 compounds.

The assay has as its target BteCAι. Description: stopped-flow CO2 hydration assay. Type of assay: biochemical, Burkholderia territorii. To be noted: CO2 substrate; 20 °C, pH 7.5, 10 mM HEPES (methods give 20 mM TRIS pH 8.3, 20 mM NaClO4); 15 min preincubation.
What is called Ki is the dissociation constant of the complex between target and ligand, obtained from inhibition or displacement. A low value points to a stronger hold on the target. The compound `Cc1onc(-c2ccccc2)c1-c1ccc(S(N)(=O)=O)cc1` [VLX, valdecoxib] yielded a Ki of 934 nM. `NC(N)=Nc1nc(CSCCC(N)=NS(N)(=O)=O)cs1` [FAM, Famotidine] displayed a Ki of 943 nM. On to `CCN1CCCC1CNC(=O)c1cc(S(N)(=O)=O)ccc1OC` (centres unmarked) [SLP, Sulpiride], for which affinity was put at a Ki of 958 nM. Turning to `NS(=O)(=O)c1nnc(NS(=O)(=O)c2ccccc2)s1` [BZA, benzolamide], the affinity corresponds to a Ki of 724 nM. In the case of `Nc1nccc(Nc2ccc(S(N)(=O)=O)cc2)n1` [compound 19, 19], the Ki worked out at 93 nM. `CC1(C)O[C@@H]2[C@@H](CO[C@@]3(COS(N)(=O)=O)OC(C)(C)O[C@@H]23)O1` [TPM, topiramate]: the Ki amounted to 787 nM. Consider `NS(=O)(=O)NCCNc1nonc1/C(=N/O)Nc1ccc(F)c(Br)c1` [EPA, epacadostat], for which the Ki worked out at 955 nM. `NS(=O)(=O)c1ccc(N2CCCCS2(=O)=O)cc1` [SLT, sulthiame] had a Ki of 954 nM. Regarding `NS(=O)(=O)Cc1noc2ccccc12` [ZNS, Zonisamide], the Ki is 806 nM.

`NCc1ccc(S(N)(=O)=O)cc1` [compound 5, 5] returned a Ki of 97 nM.

`Cc1ccc(-c2cc(C(F)(F)F)nn2-c2ccc(S(N)(=O)=O)cc2)cc1` [CLX, celecoxib]: affinity was put at a Ki of 960 nM. Consider `NS(=O)(=O)c1cc(Cl)c(Cl)c(S(N)(=O)=O)c1` [DCP, dichlorphenamide], for which the Ki is 825 nM. Compound `O=C1NS(=O)(=O)c2ccccc21` [SAC, Saccharin] had a Ki of 7080 nM. In the case of `NS(=O)(=O)c1cc2c(cc1Cl)NCNS2(=O)=O` [HCT, hydrochlorothiazide], affinity was put at a Ki of 780 nM. As for `Nc1ccc(S(N)(=O)=O)cc1Br` [compound 9, 9], the Ki is 96 nM. In turn, `CCN[C@H]1CN(CCCOC)S(=O)(=O)c2sc(S(N)(=O)=O)cc21` [BRZ, brinzolamide] registered a Ki of 3700 nM. The compound `NS(=O)(=O)c1ccc(S(=O)(=O)Nc2cccc3c(Cl)c[nH]c23)cc1` [IND, Indisulam] gave a Ki of 638 nM.
